# System: rumen fluid from dairy cows
# Assay: Rumen in vitro experiment with dairy cow rumen fluid
# Conditions: about 23 hours
# Procedure: A similar experiment was carried out using rumen fluid from dairy cows fed a typical dairy cow diet of two parts corn silage and three parts dairy concentrate. Specifically, strained rumen fluid (10 ml) was obtained, from an animal fed two hours earlier, via cannula and was mixed with 10 ml of a nutrient broth comprising a 2:3 mix of corn silage and dairy concentrate. After adding a selected growth promotant, the mixture was incubated at 39° C. for about 23 hours, with oscillation.
compound,measurement,setting,value
Avoparcin,% PR,0.5 ppm,101% OF CONTROL
same,ACE,0.5 ppm,100% OF CONTROL
same,AMO,0.5 ppm,79% OF CONTROL
same,BUT,0.5 ppm,100% OF CONTROL
same,DLAC,0.5 ppm,0% OF CONTROL
same,ETOH,0.5 ppm,0% OF CONTROL
same,GLU,0.5 ppm,0% OF CONTROL
same,IBU,0.5 ppm,122% OF CONTROL
same,IVA,0.5 ppm,101% OF CONTROL
same,LLAC,0.5 ppm,0% OF CONTROL
same,LYS,0.5 ppm,91% OF CONTROL
same,NH--N,0.5 ppm,92% OF CONTROL
same,PRO,0.5 ppm,102% OF CONTROL
same,TOTAL,0.5 ppm,1200% OF CONTROL
same,VAL,0.5 ppm,97% OF CONTROL
same,% PR,5 ppm,113% OF CONTROL
same,ACE,5 ppm,94% OF CONTROL
same,AMO,5 ppm,107% OF CONTROL
same,BUT,5 ppm,91% OF CONTROL
same,DLAC,5 ppm,0% OF CONTROL
same,ETOH,5 ppm,0% OF CONTROL
same,GLU,5 ppm,0% OF CONTROL
same,IBU,5 ppm,146% OF CONTROL
same,IVA,5 ppm,115% OF CONTROL
same,LLAC,5 ppm,0% OF CONTROL
same,LYS,5 ppm,92% OF CONTROL
same,NH--N,5 ppm,122% OF CONTROL
same,PRO,5 ppm,112% OF CONTROL
same,TOTAL,5 ppm,99% OF CONTROL
same,VAL,5 ppm,103% OF CONTROL
same,% PR,50 ppm,128% OF CONTROL
same,ACE,50 ppm,108% OF CONTROL
same,AMO,50 ppm,123% OF CONTROL
same,BUT,50 ppm,88% OF CONTROL
same,DLAC,50 ppm,0% OF CONTROL
same,ETOH,50 ppm,0% OF CONTROL
same,GLU,50 ppm,0% OF CONTROL
same,IBU,50 ppm,116% OF CONTROL
same,IVA,50 ppm,104% OF CONTROL
same,LLAC,50 ppm,0% OF CONTROL
same,LYS,50 ppm,88% OF CONTROL
same,NH--N,50 ppm,148% OF CONTROL
same,PRO,50 ppm,137% OF CONTROL
same,TOTAL,50 ppm,107% OF CONTROL
same,VAL,50 ppm,99% OF CONTROL
CC[C@@H](C(=O)[C@@H](C)[C@@H](O)[C@H](C)CCc1ccc(C)c(O)c1C(=O)O)[C@H]1O[C@](CC)([C@H]2CC[C@](O)(CC)[C@H](C)O2)C[C@@H]1C [Lasalocid],% PR,0.5 ppm,114% OF CONTROL
same,ACE,0.5 ppm,95% OF CONTROL
same,AMO,0.5 ppm,93% OF CONTROL
same,BUT,0.5 ppm,94% OF CONTROL
same,DLAC,0.5 ppm,0% OF CONTROL
same,ETOH,0.5 ppm,0% OF CONTROL
same,GLU,0.5 ppm,0% OF CONTROL
same,IBU,0.5 ppm,119% OF CONTROL
same,IVA,0.5 ppm,102% OF CONTROL
same,LLAC,0.5 ppm,0% OF CONTROL
same,LYS,0.5 ppm,106% OF CONTROL
same,NH--N,0.5 ppm,106% OF CONTROL
same,PRO,0.5 ppm,112% OF CONTROL
same,TOTAL,0.5 ppm,99% OF CONTROL
same,VAL,0.5 ppm,87% OF CONTROL
same,% PR,5 ppm,136% OF CONTROL
same,ACE,5 ppm,109% OF CONTROL
same,AMO,5 ppm,198% OF CONTROL
same,BUT,5 ppm,79% OF CONTROL
same,DLAC,5 ppm,0% OF CONTROL
same,ETOH,5 ppm,0% OF CONTROL
same,GLU,5 ppm,0% OF CONTROL
same,IBU,5 ppm,164% OF CONTROL
same,IVA,5 ppm,91% OF CONTROL
same,LLAC,5 ppm,0% OF CONTROL
same,LYS,5 ppm,130% OF CONTROL
same,NH--N,5 ppm,131% OF CONTROL
same,PRO,5 ppm,144% OF CONTROL
same,TOTAL,5 ppm,106% OF CONTROL
same,VAL,5 ppm,90% OF CONTROL
same,% PR,50 ppm,186% OF CONTROL
same,ACE,50 ppm,65% OF CONTROL
same,AMO,50 ppm,278% OF CONTROL
same,BUT,50 ppm,62% OF CONTROL
same,DLAC,50 ppm,0% OF CONTROL
same,ETOH,50 ppm,0% OF CONTROL
same,GLU,50 ppm,0% OF CONTROL
same,IBU,50 ppm,51% OF CONTROL
same,IVA,50 ppm,41% OF CONTROL
same,LLAC,50 ppm,0% OF CONTROL
same,LYS,50 ppm,150% OF CONTROL
same,NH--N,50 ppm,78% OF CONTROL
same,PRO,50 ppm,151% OF CONTROL
same,TOTAL,50 ppm,81% OF CONTROL
same,VAL,50 ppm,53% OF CONTROL
Saloinomycin,% PR,0.5 ppm,126% OF CONTROL
same,ACE,0.5 ppm,95% OF CONTROL
same,AMO,0.5 ppm,117% OF CONTROL
same,BUT,0.5 ppm,83% OF CONTROL
same,DLAC,0.5 ppm,0% OF CONTROL
same,ETOH,0.5 ppm,0% OF CONTROL
same,GLU,0.5 ppm,0% OF CONTROL
same,IBU,0.5 ppm,153% OF CONTROL
same,IVA,0.5 ppm,110% OF CONTROL
same,LLAC,0.5 ppm,0% OF CONTROL
same,LYS,0.5 ppm,119% OF CONTROL
same,NH--N,0.5 ppm,136% OF CONTROL
same,PRO,0.5 ppm,124% OF CONTROL
same,TOTAL,0.5 ppm,99% OF CONTROL
same,VAL,0.5 ppm,94% OF CONTROL
same,% PR,5 ppm,152% OF CONTROL
same,ACE,5 ppm,99% OF CONTROL
same,AMO,5 ppm,226% OF CONTROL
same,BUT,5 ppm,66% OF CONTROL
same,DLAC,5 ppm,0% OF CONTROL
same,ETOH,5 ppm,0% OF CONTROL
same,GLU,5 ppm,0% OF CONTROL
same,IBU,5 ppm,108% OF CONTROL
same,IVA,5 ppm,75% OF CONTROL
same,LLAC,5 ppm,0% OF CONTROL
same,LYS,5 ppm,117% OF CONTROL
same,NH--N,5 ppm,116% OF CONTROL
same,PRO,5 ppm,148% OF CONTROL
same,TOTAL,5 ppm,98% OF CONTROL
same,VAL,5 ppm,83% OF CONTROL
same,% PR,50 ppm,188% OF CONTROL
same,ACE,50 ppm,76% OF CONTROL
same,AMO,50 ppm,268% OF CONTROL
same,BUT,50 ppm,63% OF CONTROL
same,DLAC,50 ppm,0% OF CONTROL
same,ETOH,50 ppm,0% OF CONTROL
same,GLU,50 ppm,0% OF CONTROL
same,IBU,50 ppm,61% OF CONTROL
same,IVA,50 ppm,46% OF CONTROL
same,LLAC,50 ppm,0% OF CONTROL
same,LYS,50 ppm,114% OF CONTROL
same,NH--N,50 ppm,82% OF CONTROL
same,PRO,50 ppm,168% OF CONTROL
same,TOTAL,50 ppm,89% OF CONTROL
same,VAL,50 ppm,60% OF CONTROL
